Structures are written as SMILES. Toxic doses and inconclusive results are not listed.

This assay relates to CD2F1 mice, L1210 leukemia ip, survival T/C. Put plainly: NCI In Vivo Anticancer Drug Screen. Data for tumor model L1210 Leukemia (intraperitoneal) in CD2F1 (CDF1) mice. Conditions: endpoint: mean survival time, vehicle: saline with Tween-80, higher = longer survival. An outline of the steps: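 Implant tumor; dose compound or vehicle; measure endpoint in both groups; report treated divided by control.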

In the case of `c1ccc(-c2c[s+]cc(-c3ccccc3)c2)cc1`, the T/C is, setting by setting: (dose: 50.0 mg/kg/injection, schedule: Q01DX001 (ip)) 109 % of control; (dose: 100.0 mg/kg/injection, schedule: Q01DX001 (ip)) 104 % of control; (dose: 200.0 mg/kg/injection, schedule: Q01DX001 (ip)) 110 % of control.

Regarding `C=CS(=O)(=O)c1ccc([N+](=O)[O-])cc1`, the T/C (dose: 25.0 mg/kg/injection, schedule: Q04DX002 (ip)) was 88 % of control.

(Values after PubChem BioAssay AID256 (DTP/NCI, 2004).)
